The test system of this assay is amputated P2 bone. The assay can be described thus: Multiple treatments targeting chondrogenesis after P2 amputation. Conditions: 98 days after amputation. In kind it is in vivo, adult CD-1 mice.

The source of these data is patent publication US20260007720A1, “TISSUE REGENERATIVE MULTI-DRUG COCKTAIL AND APPARATUS FOR DELIVERY THEREOF” (priority 2022, published 2026).

Procedure: Amputation Surgery and Device Attachment and Removal—All experiments were performed under the approval of Tuft's IACUC. All animals were housed in 12-hour light and dark cycles and fed using the recommended feed. Female CD-1 (Charles River Laboratories, Wilmington, MA) and FVB/NJ mice (Jackson Laboratories, Bar Harbor, ME) from 8 to 10 weeks of age were used in the study. Animals were anesthetized with isoflurane administered at 2 to 5% air composition. For single treatment (FIG. 20A), P2 amputation in hindlimb digit 3 was made using a scalpel under a dissection microscope. Immediately after P2 amputation, the dragonskin insert containing silk hydrogel with or without bioactive molecules was then attached to the amputated digit using Skin Tite™ Bioadhesive (Smooth-On, PA). Prior to hydrogel loading, all materials and tools used in the experiment (e.g. surgical tools and device components) were autoclaved to ensure sterility. Devices were attached for various time periods and the amputation digits were then allowed to heal after device removal. For the approach to target active chondrogenesis (FIG. 20B), hindlimb digit 3 was amputated at P2 level and allowed to heal conservatively for 7 to 9 days. […]

Take insulin-like growth factor-1 [IGF-1]: the P2 bone elongation entry was “promote P2 bone elongation”.
